{"source": "patent US10537558B2", "about": "(Bantam Pharmaceutical, LLC, priority 2015, dated 2020)"}
{"test_system": "BJAB cells", "test": "BJAB cell proliferation (Cell Titer Glo)", "type": "cell-based", "conditions": "Homo sapiens, read-out: EC50", "outline": "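EC50 values come from non-linear regression of luminescence (Cell Titer Glo), expressed relative to untreated wells. BJAB cells were incubated roughly 72 h at 37 °C with serial compound dilutions carrying 0.1% final DMSO.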", "units": {"EC50": "µM"}}
{"smiles": "Cc1nn(-c2nc(-c3ccc(C(F)(F)F)cc3)c(SC(C)C)s2)c(C(=O)O)c1-c1cc(Cl)cc(Cl)c1", "note": "[Compound 219, 4-(3,5-dichlorophenyl)-1-(5-(isopropylthio)-4-(4-(trifluoromethyl)phenyl)thiazol-2-yl)-3-methyl-1H-pyrazole-5-carboxylic Acid]", "EC50": "< 1"}
{"smiles": "COCCNC(=O)c1ccc(-c2nc(-n3nc(C)c(-c4cccc(F)c4)c3C(=O)O)sc2SC(C)C)cc1", "note": "[Compound 220, 4-(3-fluorophenyl)-1-(5-(isopropylthio)-4-(4-((2-methoxyethyl)carbamoyl)phenyl)thiazol-2-yl)-3-methyl-1H-pyrazole-5-carboxylic Acid]", "EC50": "> 40"}
{"smiles": "Cc1nn(-c2nc(-c3ccc(C(=O)N(C)C)cc3)c(SC(C)C)s2)c(C(=O)O)c1-c1cccc(F)c1", "note": "[Compound 221, 1-(4-(4-(dimethylcarbamoyl)phenyl)-5-(isopropylthio)thiazol-2-yl)-4-(3-fluorophenyl)-3-methyl-1H-pyrazole-5-carboxylic acid]", "EC50": "> 40"}
{"smiles": "Cc1cc(OC(F)(F)F)ccc1-c1nc(-n2nc(C)c(-c3cccc(F)c3)c2C(=O)O)sc1SC(C)C", "note": "[Compound 224, 4-(3-fluorophenyl)-1-(5-(isopropylthio)-4-(2-methyl-4-(trifluoromethoxy)phenyl)thiazol-2-yl)-3-methyl-1H-pyrazole-5-carboxylic acid]", "EC50": "< 1"}
{"smiles": "Cc1nn(-c2nc(-c3ccc(Cl)c(Cl)c3)c(SC(C)C)s2)c(C(=O)O)c1-c1cc(F)cc(Cl)c1", "note": "[Compound 225, 4-(3-chloro-5-fluorophenyl)-1-(4-(3,4-dichlorophenyl)-5-(isopropylthio)thiazol-2-yl)-3-methyl-1H-pyrazole-5-carboxylic acid]", "EC50": "< 1"}
{"smiles": "Cc1cc(-c2nc(-n3nc(C)c(-c4cccc(F)c4)c3C(=O)O)sc2SC(C)C)ccc1C#N", "note": "[Compound 226, 1-(4-(4-cyano-3-methylphenyl)-5-(isopropylthio)thiazol-2-yl)-4-(3-fluorophenyl)-3-methyl-1H-pyrazole-5-carboxylic acid]", "EC50": "5 to 10"}
{"smiles": "Cc1nn(-c2nc(-c3ccc(Cl)c(Cl)c3)c(F)s2)c(C(=O)O)c1-c1cccc(F)c1", "note": "[Compound 227, 1-(4-(3,4-dichlorophenyl)-5-fluorothiazol-2-yl)-4-(3-fluorophenyl)-3-methyl-1H-pyrazole-5-carboxylic acid]", "EC50": "10 to 25"}
{"smiles": "CC(C)Sc1sc(-n2nc(C(C)C)c(-c3cccc(F)c3)c2C(=O)O)nc1-c1ccc(Cl)c(Cl)c1", "note": "[Compound 228, 1-(4-(3,4-dichlorophenyl)-5-(isopropylthio)thiazol-2-yl)-4-(3-fluorophenyl)-3-isopropyl-1H-pyrazole-5-carboxylic Acid]", "EC50": "1 to 5"}
{"smiles": "Cc1nn(-c2nc(-c3ccc(C(F)F)cc3)c(SC(C)C)s2)c(C(=O)O)c1-c1cccc(F)c1", "note": "[Compound 229, 1-(4-(4-(difluoromethyl)phenyl)-5-(isopropylthio)thiazol-2-yl)-4-(3-fluorophenyl)-3-methyl-1H-pyrazole-5-carboxylic acid]", "EC50": "1 to 5"}
{"smiles": "Cc1nn(-c2nc(-c3ccc(Cl)c(Cl)c3)c(OC(C)C)s2)c(C(=O)O)c1-c1cccc(F)c1", "note": "[Compound 230, 1-(4-(3,4-dichlorophenyl)-5-isopropoxythiazol-2-yl)-4-(3-fluorophenyl)-3-methyl-1H-pyrazole-5-carboxylic acid]", "EC50": "5 to 10"}
{"smiles": "CCc1ccc(-c2nc(-n3nc(C)c(-c4cccc(F)c4)c3C(=O)O)sc2SC(C)C)cc1", "note": "[Compound 231, 1-(4-(4-ethylphenyl)-5-(isopropylthio)thiazol-2-yl)-4-(3-fluorophenyl)-3-methyl-1H-pyrazole-5-carboxylic Acid]", "EC50": "1 to 5"}
{"smiles": "Cc1cc(-c2c(C)nn(-c3nc(-c4ccc(C(F)(F)F)cc4)c(SC(C)C)s3)c2C)cc(C)n1", "note": "[Compound 232, 2-(4-(2,6-dimethylpyridin-4-yl)-3,5-dimethyl-1H-pyrazol-1-yl)-5-(isopropylthio)-4-(4-(trifluoromethyl)phenyl) thiazole]", "EC50": "25 to 50"}
